The source of these data is article PMC4061482 (Frontiers in Oncology, 2014).

Like-named read-outs stand apart in the source and are kept apart here.

Experiment [1] concerns T47D cells. Nature of the experiment: 17β-estradiol ELISA after estrone stimulation. To be noted: 10 μM; 28 nM estrone, 24 h. It counts as cell-based, human. On the procedure:
(§1) Cells were seeded into 96-well plates in hormone-deprived media at appropriate seeding densities [10,000–50,000 cells per well for all lines except HCC1500 (100,000 cells per well; 11β-PGF2α ELISA)] to reach approximately 70% confluency at the time of sampling and were left to settle for 24 h at 37°C and 5% CO2. Inhibitors were added to the plates at single or multiple concentrations for 1 h prior to administration of equimolar (28 nM) concentrations of PGD2 (11β-PGF2α ELISA), androstenedione (testosterone ELISA), or estrone (17β-estradiol ELISA). The plates were returned to the incubator for a further 24 h before cell supernatant was removed for analysis of 11β-PGF2α, testosterone, or 17β-estradiol by ELISA as per manufacturer’s instructions (11β-PGF2α and testosterone ELISA, Cayman Chemical Company; 17β-estradiol ELISA, Oxford Biomedical Research), and cells were fixed for sulforhodamine B analysis as described below. Each ELISA plate was read at a wavelength of 405 nm (11β-PGF2α and testosterone) or 650 nM (17β-estradiol) on a SpectraMax M2 microplate reader (Molecular Devices) and quantitated against a standard curve generated in hormone-deprived culture media. Cross-reactivity to PGD2, androstenedione, or estrone was accounted for by adding these to cell-free wells of each ELISA plate.
(§2) 17β-estradiol is predominantly produced from estrone by 17β-HSD1 in breast tissue in post-menopausal women ([44]). Although less catalytically efficient than 17β-HSD1, AKR1C3 can also convert estrone to 17β-estradiol ([10], [12], [14]), and therefore, may play a role in ER-positive breast cancer development. To investigate the activity of AKR1C3 in 17β-estradiol production, ER-positive breast cancer cells and known high and low AKR1C3-expressing cells were stimulated with estrone for 24 h prior to determination of 17β-estradiol levels by ELISA.
Background: In an ELISA, binding on a coated surface is turned into a signal by an enzyme label.

Experiment [2] deals with MCF7 cells. Nature of the experiment: 17β-estradiol ELISA after estrone stimulation. It counts as cell-based, human. To be noted: Homo sapiens, MCF7; 10 μM; 28 nM estrone, 24 h; read-out: Inhibition of 17β-estradiol formation. On the procedure:
as §1, §2

The test system of experiment [3] is T47D AKR1C3 cells. Nature of the experiment: 17β-estradiol ELISA after estrone stimulation. It counts as cell-based, human. To be noted: 10 μM; 28 nM estrone, 24 h. How it is done:
as §1, §2

Experiment [4] has as its system LNCaP cells. The experiment in a line: Testosterone ELISA after androstenedione stimulation. It counts as cell-based, human. Particulars: 10 μM; 28 nM androstenedione, 24 h; P < 0.05. How it is done:
(§3) Cells were seeded into 96-well plates in hormone-deprived media at appropriate seeding densities [10,000–50,000 cells per well for all lines except HCC1500 (100,000 cells per well; 11β-PGF2α ELISA)] to reach approximately 70% confluency at the time of sampling and were left to settle for 24 h at 37°C and 5% CO2. Inhibitors were added to the plates at single or multiple concentrations for 1 h prior to administration of equimolar (28 nM) concentrations of PGD2 (11β-PGF2α ELISA), androstenedione (testosterone ELISA), or estrone (17β-estradiol ELISA). […] Each ELISA plate was read at a wavelength of 405 nm (11β-PGF2α and testosterone) or 650 nM (17β-estradiol) on a SpectraMax M2 microplate reader (Molecular Devices) and quantitated against a standard curve generated in hormone-deprived culture media. […]
(§4) Since AKR1C3 has been implicated in the development of CRPC because of its ability to produce testosterone intratumorally from circulating androstenedione, we determined testosterone concentrations in the prostate cancer cell lines and known high and low AKR1C3-expressing cells after stimulation with androstenedione for 24 h. […]

The test system of experiment [5] is NCI-H460 cells. Nature of the experiment: 17β-estradiol ELISA after estrone stimulation. The experiment is classed as cell-based. To be noted: Homo sapiens, 28 nM estrone, 24 h, read-out: Inhibition of 17β-estradiol formation. On the procedure: as §1, with “plate. […]” for “plate.”
Experiment [6] deals with NCI-H460 cells. The experiment in a line: Testosterone ELISA after androstenedione stimulation. The experiment is classed as cell-based, human. Particulars: Homo sapiens, NCI-H460; 10 μM; 28 nM androstenedione, 24 h; read-out: Inhibition of testosterone levels. On the procedure:
as §1
(§5) Since AKR1C3 has been implicated in the development of CRPC because of its ability to produce testosterone intratumorally from circulating androstenedione, we determined testosterone concentrations in the prostate cancer cell lines and known high and low AKR1C3-expressing cells after stimulation with androstenedione for 24 h.

Experiment [7] relates to HCT116 AKR1C3 cells. Described as above. To be noted: Homo sapiens, HCT-116; for inhibition at 10 µM: read-out: Inhibition of testosterone levels. The experiment is classed as cell-based, human. How it is done:
as §1, §5

Experiment [8] concerns T47D cells. Nature of the experiment: Cell proliferation (sulforhodamine B), 5 days. The experiment is classed as cell-based, human. To be noted: 10 μM, estrone up to 10 nM. On the procedure: (§6) Cells were seeded into 96-well plates in hormone-deprived media at appropriate seeding densities (5000–20,000 cells per well) to reach approximately 70% confluency at the time of sampling and left to settle for 48 h at 37°C and 5% CO2. […] The plates were returned to the incubator for 5 days before fixing in 10% trichloroacetic acid (Merck Millipore) at 4°C for 1 h and staining with 0.4% sulforhodamine B (Sigma-Aldrich) in 1% acetic acid for 30 min in the dark at room temperature. Plates were washed in 1% acetic acid, dried, and incubated with unbuffered Tris base (10 mM; Serva) for 30 min on a plate shaker in the dark to solubilize the stain. The plates were read on a BioTek EL808 microplate reader at an absorbance of 490 nm with a reference wavelength of 450 nm.
(§7) Neither androstenedione nor estrone-stimulated cell proliferation in the HCT116 AKR1C3 and wild-type cell lines (data not shown).

For experiment [9], the system named is T47D AKR1C3 cells. The experiment in a line: Cell proliferation (sulforhodamine B), 5 days. It counts as cell-based, human. Particulars: 10 μM, estrone up to 10 nM. How it is done: as §6, §7
Experiment [10] has as its system LAPC4 wild-type cells. The experiment in a line: Cell proliferation (sulforhodamine B), 5 days. It counts as cell-based, human. To be noted: 10 μM. On the procedure:
as §6
(§8) Finally, we investigated whether inhibiting AKR1C3-dependent testosterone or 17β-estradiol production could prevent androstenedione- or estrone-stimulated cell proliferation in CRPC or ER-positive breast cancer cells.

Experiment [11] has as its system LAPC4 AKR1C3 cells. Nature of the experiment: Cell proliferation (sulforhodamine B), 5 days. It counts as cell-based, human. On the procedure:
as §6, §8

In experiment [12] the test system is 22RV1 cells. Nature of the experiment: Cell proliferation (sulforhodamine B), 5 days. The experiment is classed as cell-based, human. To be noted: 10 μM. On the procedure: as §6, §8
Experiment [13] relates to LAPC4 AKR1C3 cells. The experiment in a line: Testosterone ELISA after androstenedione stimulation. To be noted: Homo sapiens, 28 nM androstenedione, 24 h, read-out: Inhibition of testosterone levels. It counts as cell-based. How it is done: as §3, §4

As for `CC1CCCCN1S(=O)(=O)c1ccc(N2CCCC2=O)cc1` (stereo not shown) [SN33638], the “Effect on 17β-estradiol levels” value in experiment [1] and in experiment [3] was “no effect” each time. Also, the inhibition at 10 µM was determined as 16% in [2]; 39.6% in [5]; 54.1% in experiment [6]; 73.7% in experiment [7] (10 μM alone, Figure 4D); 74.2% in [7] (10 μM, 28 nM androstenedione, 24 h, Figure 4B); 101% in experiment [11] (Homo sapiens, LAPC4, 120 h, 0.1 nM androstenedione, read-out: Inhibition of androstenedione-stimulated cell proliferation). The inhibition at 10 µM in [13] is 96.8%. Moreover, the “Effect on testosterone levels” value in experiment [4] is given as “significantly increased”. Further, the EC50 (usually the midpoint of the concentration-response curve) in experiment [7] (HCT116 AKR1C3 cells, 28 nM androstenedione, 24 h, read-out: EC50 of inhibition of testosterone production) is 7.4 ± 1.2 nM. Also, the “Effect on estrone-stimulated cell proliferation” value in [8] and in experiment [9] was “not significantly inhibited” each time. For the same compound, the “Effect on androstenedione-stimulated cell proliferation” value in experiment [10] and in [12] was “no effect” throughout. In addition, the “Reduction in androstenedione-stimulated cell proliferation” value in [11] (10 μM, 1 nM androstenedione, non-significant) is on record as 45.9%.
